Data from patent US7999002B2, “Use of N-(dibenz(b,f)oxepin-10-ylmethyl)-N-methyl-N-prop-2-ynylamine (omigapil) or a pharmaceutically acceptable addition salt thereof for the prophylaxis and/or treatment of muscular dystrophy” (Santhera Pharmaceuticals (Schweiz) AG, priority 2005, dated 2011).

What was measured:
[1] = test system: homozygous dy^W/dy^W mice deficient in laminin-α2 expression; assay: Skeletal deformation (kyphosis) by X-ray analysis and visual scoring (FIG. 5); type: in vivo, mouse; details: dy^W/dy^W mice at 11 weeks of age, 1 mg/kg; example animal; vehicle 66°
Experimental: The beneficial and therapeutically relevant effect of N-(dibenz(b,f)oxepin-10-ylmethyl)-N-methyl-N-prop-2-ynylammonium maleate (omigapil) on the skeletal deformation (i.e. kyphosis) was tested in a mouse model for MDC1A deficient in laminin-α2 expression. For this, homozygous dy^W/dy^W mice were treated with omigapil (at a dose of 1 mg/kg body weight) and their kyphosis was scored at 11 weeks of age by visual inspection and X-ray analysis and compared to the extent of kyphosis seen in homozygous dy^W/dy^W mice treated with vehicle only and untreated wildtype mice. The treatment regime was as described in example 1.
Spinal deformation was documented by X-ray pictures of an age-matched wild-type mouse (A), a vehicle-treated (B) and an 1 mg/kg omigapil-treated dy^W/dy^W mouse (C). The kyphosis was quantified in living animals using a visual scoring system (1: barely detectable, 2: mild, 3: moderate, 4: severe) (D). 9 vehicle- and 7 omigapil-treated animals were analyzed.

[2] = test system: homozygous dy^W/dy^W mice deficient in laminin-α2 expression; assay: Voluntary exploratory locomotory activity in a new cage (FIG. 6); type: in vivo, mouse; details: dy^W/dy^W mice at 6 weeks of age; for locomotory activity in the 10-minute test period: vehicle 236 seconds, p-value<0.05
Experimental: The therapeutically relevant effect of N-(dibenz(b,f)oxepin-10-ylmethyl)-N-methyl-N-prop-2-ynylammonium maleate (omigapil) on the voluntary locomotion was tested in a mouse model for MDC1A deficient in laminin-α2 expression. Starting at day fifteen, homozygous dy^W/dy^W mice were treated with omigapil at doses of 0.1 or 1 mg/kg body weight. Their individual exploratory locomotory activity was assessed at 6 weeks of age and compared to age-matched dy^W/dy^W mice treated with vehicle only. The treatment regime was as described in example 1.
It can be concluded that omigapil increases locomotory activity in an animal model for muscular dystrophy caused by laminin α2-deficiency.
Newborn dy^W/dy^W mice were genotyped and randomly assigned to the vehicle or the 0.1 and 1 mg/kg omigapil groups. The voluntary locomotory activity was measured within the first 10 minutes after having placed the animal in a new cage. […] The difference in activity is statistically significant for both omigapil treatments (asterisk: p-value<0.05). In total 13, 15 and 10 animals were included into the vehicle, the 0.1 and the 1 mg/kg omigapil group, respectively.

[3] = test system: homozygous dy^W/dy^W mice deficient in laminin-α2 expression; assay: Survival rate in mouse model for MDC1A (Kaplan-Meier, FIG. 1); type: in vivo; details: 0.1 mg/kg once daily (i.p., then gavage from 4th week), 1 out of 13 animals, vehicle 6 out of 15 (=40%)
Experimental: The effect of N-(dibenz(b,f)oxepin-10-ylmethyl)-N-methyl-N-prop-2-ynylammonium maleate (omigapil) on the survival rate was tested in a mouse model for MDC1A deficient in laminin-α2 expression. Starting at day fifteen, homozygous dy^W/dy^W mice were treated with omigapil. Their survival rate was compared to homozygous dy^W/dy^W mice treated with vehicle only. For this, omigapil was dissolved in 0.5% w/v ethanol to a final concentration of 20 μg/ml. The treatment regime was as follows: omigapil (20 μg/ml in 0.5% ethanol) was applied to 3 week old dy^W/dy^W-mice by intraperitoneal (i.p.) injection once per day; from the 4th week of age onwards mice received the same concentration of omigapil once per day by gavage feeding instead of i.p. application. The final dose of omigapil given to dy^W/dy^W-mice at all times was 0.1 mg/kg body weight, once daily following the guidance as described elsewhere (Sagot Y. et al. (2000)—An orally active anti-apoptotic molecule (CGP 3466B) preserves mitochondria and enhances survival in an animal model of motoneuron disease. Br. J. Pharmacol. 131:721-728). Control mice received the equivalent amount of vehicle only. […]

[4] = test system: homozygous dy^W/dy^W mice deficient in laminin-α2 expression; assay: Skeletal muscle apoptosis (TUNEL) in Triceps muscle (FIG. 3); type: in vivo, mouse; details: dy^W/dy^W mice at 6 weeks of age, 0.1 mg/kg
Experimental: The effect of N-(dibenz(b,f)oxepin-10-ylmethyl)-N-methyl-N-prop-2-ynylammonium maleate (omigapil) on skeletal muscle apoptosis was tested in a mouse model for MDC1A deficient in laminin-α2 expression. Starting at day fifteen, homozygous dy^W/dy^W mice were treated with omigapil. The number of apoptotic myonuclei were analyzed and compared to the number of apoptotic myonuclei determined in homozygous dy^W/dy^W mice treated with vehicle only and to the number of apoptotic myonuclei determined in untreated wild-type mice. For this, omigapil was given to dy^W/dy^W-mice at a dose of 0.1 mg/kg body weight according to the treatment regime described in example 1. […]
Newborn dy^W/dy^W mice were genotyped and randomly assigned to the vehicle or omigapil group. The apoptotic myonuclei in the Triceps foreleg muscle were determined by counting muscle fibers positively stained for Terminal dUTP nick end labeling (TUNEL). […] The relative number of apoptotic myofibres was calculated by dividing the number of TUNEL positive myonuclei by the total number of myofibres. 7 animals were analyzed per treatment group. 1.1% of the myofibers in the Triceps muscle of the vehicle-treated dy^W/dy^W mice had apoptotic myonuclei at 6 weeks of age while only 0.7% apoptotic myofibres were detected in the omigapil-treated group. […]

[5] = test system: homozygous dy^W/dy^W mice deficient in laminin-α2 expression; assay: Body weight gain in mouse model for MDC1A (FIG. 2); type: in vivo; details: vehicle maximally 11%
Experimental: Example 2 describes the therapeutically relevant effect of N-(dibenz(b,f)oxepin-10-ylmethyl)-N-methyl-N-prop-2-ynylammonium maleate (omigapil) on the body weight gain in a mouse model for MDC1A deficient in laminin-α2 expression. Starting at day fifteen, homozygous dy^W/dy^W mice were treated with omigapil. Their individual body weights were assessed daily and compared to homozygous dy^W/dy^W mice treated with vehicle only (control group). For this, omigapil was given to dy^W/dy^W-mice at doses of 0.1 or 1 mg/kg body weight, respectively. The treatment regime was as described in example 1.
Newborn dy^W/dy^W mice were genotyped and randomly assigned to the vehicle or the 0.1 and 1 mg/kg omigapil groups. The individual body weights were assessed daily and the mean body weight were calculated every week. The percentage of mice above an average body weight of twelve grams is shown grouped according to age (between 6 and 11 weeks) for each treatment group. In total 27, 34 and 25 animals were included into the vehicle, the 0.1 and the 1 mg/kg omigapil group, respectively.

[6] = test system: homozygous dy^W/dy^W mice deficient in laminin-α2 expression; assay: Muscle fiber size distribution in Triceps muscle (FIG. 4); type: in vivo, mouse; details: dy^W/dy^W mice at 6 weeks of age, 0.1 mg/kg; vehicle 8%; p-value<0.05
Experimental: The effect of N-(dibenz(b,f)oxepin-10-ylmethyl)-N-methyl-N-prop-2-ynylammonium maleate (omigapil) on muscle fiber size distribution was tested in a mouse model for MDC1A deficient in laminin-α2 expression. Muscle fiber diameters were analyzed in Triceps muscle of 6 weeks old dy^W/dy^W mice treated with 0.1 mg/kg body weight omigapil or with vehicle only. The treatment regime was as described in example 1.
It can be concluded from this increase in large diameter myofibers that omigapil improves muscle histology in an animal model for muscular dystrophy caused by laminin α2-deficiency.
Newborn dy^W/dy^W mice were genotyped and randomly assigned to the vehicle or omigapil group. The myofiber diameters were measured following methods known to the skilled artist (Briguet, A., Courdier-Fruh, I., Foster, M., Meier, T., Magyar, J. P. (2004)—“Histological parameters for the quantitative assessment of muscular dystrophy in the mdx-mouse”, Neuromuscul Disord 14(10): 675-82). For each muscle all muscle fibers of one cross section were included into the analysis. 7 animals were analyzed per treatment group. 8% of the myofibers in the Triceps muscle of the vehicle-treated dy^W/dy^W mice had muscle diameters above 50 micrometers at 6 weeks of age while 15% of myofibres in the omigapil-treated group fulfilled this criteria. Asterisk: p-value<0.05.

[7] = target: glyceraldehyde-3-phosphate dehydrogenase (GAPDH) (Homo sapiens, UniProt P04406); details: reported in J. Biol. Chem. 273:5821-5828; cited from earlier work
Sequence of glyceraldehyde-3-phosphate dehydrogenase (GAPDH) (P04406 whole entry, species assumed): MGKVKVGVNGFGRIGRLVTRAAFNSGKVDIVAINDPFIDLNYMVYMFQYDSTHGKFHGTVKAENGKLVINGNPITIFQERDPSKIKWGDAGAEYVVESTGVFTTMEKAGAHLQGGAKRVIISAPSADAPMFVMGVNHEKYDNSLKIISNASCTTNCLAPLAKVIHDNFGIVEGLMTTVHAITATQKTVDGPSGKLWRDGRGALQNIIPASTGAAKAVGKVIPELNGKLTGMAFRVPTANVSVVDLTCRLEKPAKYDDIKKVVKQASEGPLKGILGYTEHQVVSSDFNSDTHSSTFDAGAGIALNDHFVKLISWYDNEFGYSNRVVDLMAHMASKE

Compound	angle spanned by the spine (kyphosis, X-ray) [1] [°]	increase in locomotory activity compared to vehicle group ([2]; 0.1 mg/kg) [%]	locomotory activity in the 10-minute test period ([2]; 0.1 mg/kg) [seconds]	increase in locomotory activity compared to vehicle group ([2]; 1 mg/kg) [%]	locomotory activity in the 10-minute test period ([2]; 1 mg/kg) [seconds]	animals died within the first 80 days of age [3] [%]	reduction in apoptotic myofibres compared to vehicle ([4]; Triceps muscle) [%]	apoptotic myofibres in the Triceps muscle (TUNEL) ([4]; vehicle 1.1%) [%]	percentage of mice that reached a body weight above 12 grams within the first 11 weeks of age ([5]; 0.1 mg/kg omigapil) [%]	percentage of mice that reached a body weight above 12 grams within the first 11 weeks of age ([5]; 1 mg/kg omigapil) [%]	myofibres with muscle fiber diameters above 50 micrometers in the Triceps muscle [6] [%]	binding to GAPDH [7]
N-(dibenz(b,f)oxepin-10-ylmethyl)-N-methyl-N-prop-2-ynylammonium maleate [omigapil]	89	39	330	26	301	8	35	0.7	25	43	15	
C#CCN(C)CC1=Cc2ccccc2Oc2ccccc21 [compound of formula (I), N-(dibenz(b,f)oxepin-10-ylmethyl)-N-methyl-N-prop-2-ynylamine]												binds to glyceraldehyde-3-phosphate dehydrogenase (GAPDH)
